Experimental findings from ChEMBL document CHEMBL1201862, “PubChem BioAssay data set” (2004) are described below.

Some test systems named below: A549; CCRF-CEM; COLO 205; HCC 2998; HCT-116; HCT-15; HL-60; HT-29; Hs-578T; IGROV-1; MCF7; MOLT-4; Malme-3M; NCI-H23; PC-3; SR; T47D; TK-10; UO-31; SNB-75.
Holding throughout (experiment): NCI tumour cell line growth inhibition, 48 h

Each structure is given as a SMILES string.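 Results reflect a 48-hour exposure of cells in 96-well plates to compound at five concentrations. Abbreviation: GI50, concentration required for 50% inhibition of growth.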 Activity calls are given as the source filed them. No stated cut-off is given here; in the data, active = GI50 up to about 1.1 µM and inactive = higher. Bounds are passed on as bounds.

With `CN1CCN(CC(=O)Nc2cccc3ccccc23)CC1`, the GI50 with A549 was > 100 µM (inactive); in the assay with CCRF-CEM it was > 100 µM (inactive); in the assay with COLO 205 it was > 100 µM (inactive); in the assay with HCC 2998, > 100 µM (inactive); in the assay with HCT-116 it was > 100 µM (inactive); in the assay with HCT-15, above 100 µM. Further, the GI50 in the assay on HL-60 is > 100 µM (inactive); in the assay on HT-29, > 31.6 µM (inactive); with Hs-578T it was > 100 µM (inactive); in the assay with IGROV-1, > 100 µM (inactive); in the assay on MCF7, > 100 µM (inactive); with MOLT-4, > 100 µM (inactive). Besides, the GI50 in the assay with Malme-3M, in the assay with NCI-H23, in the assay with PC-3, in the assay with SR, with T47D and in the assay with TK-10 was > 100 µM (inactive) in each case. The GI50 with UO-31 was > 100 µM (inactive).

On to `CCOC(=O)c1cc(C(O)P2(=O)N(CC(C)(C)C)[C@@H]3CCCC[C@H]3N2CC(C)(C)C)cn1C(=O)OC(C)(C)C` (some centres undefined), for which the GI50 in the assay on A549 was 15.7 µM (inactive); with COLO 205 it was 17.3 µM (inactive); in the assay with HCC 2998, 16.2 µM (inactive); with HCT-116 it was 11.2 µM (inactive); in the assay with HCT-15, 17.1 µM; in the assay on HL-60, 24.5 µM (inactive). The GI50 with HT-29 is 13.8 µM (inactive); in the assay on Hs-578T it was 16.9 µM (inactive); with IGROV-1 it was 4.8 µM (inactive); in the assay with MCF7, 18.7 µM (inactive); in the assay with MOLT-4, 12.8 µM (inactive); in the assay with Malme-3M, 13.7 µM (inactive). Besides, the GI50 in the assay with NCI-H23 was 24.3 µM (inactive); in the assay with PC-3, 15.9 µM (inactive); in the assay with SR, 10.2 µM (inactive); in the assay on T47D, 15.1 µM (inactive); in the assay with TK-10, 22.6 µM (inactive); in the assay on UO-31, 15.3 µM (inactive).

Consider `Nc1c(Cl)ncnc1N[C@@H]1C[C@H]1CO`, for which the GI50 was > 100 µM (inactive) in the assay with A549; > 100 µM (inactive) with CCRF-CEM; > 100 µM (inactive) in the assay on COLO 205; > 100 µM (inactive) in the assay with HCC 2998; > 100 µM (inactive) in the assay on HCT-116; above 100 µM with HCT-15. The GI50 in the assay on HL-60, with HT-29, in the assay with Hs-578T, in the assay on IGROV-1, in the assay with MCF7 and in the assay on MOLT-4 was > 100 µM (inactive) in each case. The GI50 in the assay with NCI-H23 is > 100 µM (inactive); with PC-3, > 100 µM (inactive); in the assay on SNB-75 it was 0.494 µM (active); in the assay on SR, > 100 µM (inactive); in the assay on T47D, > 100 µM (inactive); in the assay on TK-10, > 100 µM (inactive). In the assay on UO-31, the GI50 was > 100 µM (inactive).

Turning to `COc1ccc(OC)c(C2CCc3c(cnc4nc(N)nc(N)c34)C2)c1` (centres undefined), the GI50 with A549 was 1.24 µM (inactive); in the assay on COLO 205, 16.1 µM (inactive); in the assay with HCC 2998 it was 12.3 µM (inactive); in the assay on HCT-116, 1.83 µM (inactive); in the assay on HCT-15 it was 5.42 µM; in the assay on HL-60, 10.4 µM (inactive). The GI50 in the assay with HT-29 is 2 µM (inactive); in the assay on Hs-578T, 15.7 µM (inactive); in the assay with IGROV-1 it was 2.29 µM (inactive); with MCF7 it was 10.1 µM (inactive); in the assay with MOLT-4, 2.49 µM (inactive); in the assay with Malme-3M, 4.83 µM (inactive). Also, the GI50 is 8.2 µM (inactive) in the assay on PC-3, 3.86 µM (inactive) in the assay with SR, 20.7 µM (inactive) in the assay on T47D and 10.9 µM (inactive) in the assay on TK-10.

For the molecule `COc1ccc(NC(S)=Nc2cccc(C)n2)cc1`, the GI50 with CCRF-CEM is > 100 µM (inactive); in the assay with COLO 205, > 100 µM (inactive); in the assay on HCC 2998, > 100 µM (inactive); in the assay on HCT-116 it was > 100 µM (inactive); in the assay on HCT-15, 78.2 µM; with HL-60, > 100 µM (inactive). Further, the GI50 is > 100 µM (inactive) with HT-29; 58.2 µM (inactive) with Hs-578T; 70.6 µM (inactive) with IGROV-1; > 100 µM (inactive) in the assay on MCF7; > 100 µM (inactive) in the assay on MOLT-4; 84.5 µM (inactive) in the assay on NCI-H23. The GI50 with PC-3 was > 100 µM (inactive); in the assay with SNB-75 it was 69.5 µM (inactive); with SR, > 100 µM (inactive); with T47D, > 100 µM (inactive); in the assay with TK-10, > 100 µM (inactive); in the assay on UO-31, > 100 µM (inactive).

In the case of `COc1c(O)cc2c(c1O)C(=O)C1=C(CCCC1)C2=O`, the GI50 was 26.1 µM (inactive) in the assay with A549; 1.87 µM (inactive) in the assay on CCRF-CEM; 19.1 µM (inactive) in the assay on COLO 205; 21.9 µM (inactive) in the assay with HCC 2998; 12.5 µM (inactive) in the assay on HCT-116; 26.1 µM with HCT-15. Besides, the GI50 is 8.24 µM (inactive) with HL-60; 21.7 µM (inactive) in the assay on HT-29; 21.8 µM (inactive) in the assay on Hs-578T; 12.6 µM (inactive) in the assay on IGROV-1; 33.9 µM (inactive) with MCF7; 4.8 µM (inactive) in the assay on MOLT-4. The GI50 in the assay on Malme-3M is 25.8 µM (inactive); with NCI-H23 it was 15.5 µM (inactive); with PC-3, 22.8 µM (inactive); with SR, 10.8 µM (inactive); with T47D, 17.9 µM (inactive); with TK-10, 34.3 µM (inactive). Besides, in the assay on UO-31, the GI50 was 7.24 µM (inactive).

Regarding `Cc1cn(CCCCCCOC(=O)NC(CCCNC(=N)N)C(=O)O)c(=O)[nH]c1=O` (centres undefined), the GI50 is > 100 µM (inactive) with A549; > 100 µM (inactive) in the assay with CCRF-CEM; > 100 µM (inactive) with COLO 205; > 100 µM (inactive) in the assay with HCC 2998; > 100 µM (inactive) in the assay with HCT-116; above 100 µM in the assay on HCT-15. In addition, the GI50 in the assay with HL-60, with HT-29, in the assay on Hs-578T, with IGROV-1, in the assay with MCF7 and with MOLT-4 was > 100 µM (inactive) each time. The GI50 in the assay on NCI-H23, in the assay on PC-3, in the assay on SNB-75, in the assay with SR, in the assay on T47D and in the assay on TK-10 was > 100 µM (inactive) throughout. In addition, in the assay with UO-31, the GI50 was > 100 µM (inactive).

Turning to `CC(=O)OC1(C)C(=O)OC/C2=C/CN(C)CCC(OC(=O)C(O)(C(C)Cl)CC1C)C2=O.c1ccccc1` (centres undefined), the GI50 was > 100 µM (inactive) with A549; > 100 µM (inactive) in the assay on CCRF-CEM; > 100 µM (inactive) with COLO 205; > 100 µM (inactive) in the assay on HCC 2998; > 100 µM (inactive) with HCT-116; above 100 µM in the assay on HCT-15. Further, the GI50 in the assay with HL-60, with HT-29, with Hs-578T, in the assay on IGROV-1, in the assay on MCF7 and in the assay with MOLT-4 was > 100 µM (inactive) each time. Further, the GI50 in the assay with NCI-H23, in the assay on PC-3, with SNB-75, in the assay with SR, in the assay on T47D and in the assay on TK-10 was > 100 µM (inactive) throughout. Besides, the GI50 in the assay on UO-31 was > 100 µM (inactive).

Turning to `CC1(C)C=C(/C=C2/N(S(=O)(=O)C(F)(F)F)C(/C=C3/N(S(=O)(=O)C(F)(F)F)C(C)(C#N)CC3(C)C)=CC2(C)C)N=C1/C=C1/CC(C)(C)C(=O)N1` (centres undefined), the GI50 was 32.8 µM (inactive) with A549; 2.84 µM (inactive) in the assay with CCRF-CEM; 14.2 µM (inactive) in the assay with COLO 205; 35.2 µM (inactive) in the assay with HCC 2998; 3.73 µM (inactive) with HCT-116; 6.05 µM with HCT-15. The GI50 with HL-60 is 1.41 µM (inactive); in the assay on HT-29, 16.8 µM (inactive); in the assay on Hs-578T, 16.2 µM (inactive); in the assay with IGROV-1, 7.24 µM (inactive); in the assay with MCF7, 9.29 µM (inactive); in the assay with MOLT-4, 2.84 µM (inactive). Moreover, the GI50 in the assay with NCI-H23 is 18.8 µM (inactive); in the assay with PC-3, 5.71 µM (inactive); in the assay on SNB-75, 61.5 µM (inactive); in the assay with SR it was 2.8 µM (inactive); in the assay on T47D, 6.07 µM (inactive); in the assay on TK-10 it was 71.9 µM (inactive). In addition, the GI50 with UO-31 is 35.8 µM (inactive).

For `Nc1cc(Cl)ccc1SSc1ccc(Cl)cc1N`, the GI50 with A549 is 23.1 µM (inactive); in the assay with CCRF-CEM it was 3.07 µM (inactive); with COLO 205, 16.8 µM (inactive); with HCT-116, 9.16 µM (inactive); in the assay with HCT-15 it was 2.99 µM; in the assay with HL-60, 16 µM (inactive). In addition, the GI50 with HT-29 was 16.1 µM (inactive); in the assay with Hs-578T it was 8.79 µM (inactive); with IGROV-1 it was 10.1 µM (inactive); in the assay on MCF7, 3.85 µM (inactive); with MOLT-4, 4.06 µM (inactive); with Malme-3M, 15.7 µM (inactive). Besides, the GI50 in the assay on NCI-H23 is 5.61 µM (inactive); in the assay with PC-3, 5.7 µM (inactive); with SNB-75 it was 16.8 µM (inactive); in the assay on SR, 4.32 µM (inactive); with T47D it was 5.92 µM (inactive); in the assay on TK-10 it was 20.2 µM (inactive). Further, the GI50 in the assay on UO-31 is 7 µM (inactive).

Consider `NNC(=O)CSc1nc2ccc(I)cc2c(=O)n1Cc1ccccc1`, for which the GI50 was 24.3 µM (inactive) with A549; 3.89 µM (inactive) in the assay on CCRF-CEM; 21.5 µM (inactive) in the assay with COLO 205; 16.8 µM (inactive) in the assay with HCC 2998; 18.4 µM (inactive) in the assay on HCT-116; 36.6 µM in the assay on HCT-15. Moreover, the GI50 was 20.6 µM (inactive) in the assay with HL-60; 21.7 µM (inactive) in the assay with HT-29; 20.9 µM (inactive) with Hs-578T; 24.4 µM (inactive) with IGROV-1; 22.2 µM (inactive) in the assay on MCF7; 15 µM (inactive) with MOLT-4. Further, the GI50 is 31.5 µM (inactive) with NCI-H23; 22.8 µM (inactive) in the assay with PC-3; 22.9 µM (inactive) in the assay on SNB-75; 26.5 µM (inactive) in the assay on SR; 22.5 µM (inactive) in the assay with T47D; 16.9 µM (inactive) with TK-10. For the same molecule, the GI50 with UO-31 was 15.9 µM (inactive).
